The values below come from patent US20180064811A1, “PHARMACEUTICAL COMBINATIONS COMPRISING CD33 ANTIBODIES AND DE-METHYLATING AGENTS” (Boehringer Ingelheim International GmbH, priority 2013, published 2018).

For the experiment, the system named is HL60 cells. Description: ADCC (LDH release) of CD33 antibody CD33-1 with PBMC effector cells pre-treated with de-methylating agents. The class given is cell-based, human. Particulars: for Relative Cytolysis (%): ADCC of CD33-1 on HL60 target cells, human PBMC effector cells pre-treated with 100 nM de-methylating agent for 3 to 6 days, E:T 25:1, relative to untreated PBMC (100), 3 independent assays; for impact on ADCC of mAb 33-1: effector cells (PBMC) treated with 100 nM for 3 to 6 days, compared with untreated effector cells. The procedure:
The ability CD33 antibodies to mediate antibody-dependent cell-mediated cytotoxicity (ADCC) in the presence of effector cells pre-treated with demethylating agents is assessed using HL60 cells as target cells and human PBMCs as effector cells.
Preparation of target cells (HL-60 acute myeloid leukemia, DSMZ #ACC3)
An aliquot of the cell culture at a cell density between 1.5×10^6/m1 and 1.8×10^6/m1 and growing in the log-phase is centrifuged (200×g, i.e. 1000 rpm) for 10 min. Cells are washed once with washing medium (RPMI 1640 w/o L-glutamine) and pelleted (200×g, i.e. 1000 rpm; 10 min). Cell pellet is suspended in assay medium (1% BSA; AlbuMAX II (Gibco 11021-037)) and cell count is determined. Cell concentration is adjusted to 2×10^5/ml.
Approximately 100 ml whole blood drawn from healthy donors is used for the isolation of PBMC. 10 ml whole blood are diluted 1:3.6 with 26 ml HBSS (Gibco 14170-088; Paisley, Scotland) in a 50 ml tube. 18 ml diluted whole blood is layered on top of 12 ml Lymphoprep (Nycomed Pharma AS 1053980) in a 50 ml tube and centrifuged at 370×g (1400 rpm) for 35 min. The mononuclear cells from the interface are aspirated and washed first with HBSS (750×g, i.e. 1900 rpm; 10 min), then a second time with HBSS (300×g, i.e. 1200 rpm; 10 min) and finally with HBSS (160×g, i.e. 900 rpm; 10 min). The pelleted cells are gently suspended in culture medium/assay medium (10% heat-inactivated human AB serum in RPMI 1640 w/o L-glutamine) using a pipette and the cell count is determined in the cell counter. The PBMC concentration is adjusted to 1×10^7/ml.
The freshly isolated PBMC (5×10^5/m1) are pre-treated with de-methylating agents in culture medium (RPMI 1640 w/o L-glutamine supplemented with 10% human AB serum and decitabine or 5-azacytidine at a final concentration of 100 nM) in a tissue culture flask (75 cm^2) at 37° C. in CO2 incubator for 3 to 6 days. De-methylating agent treated PBMC are separated from cell debris on a Lymphoprep gradient. The purified de-methylating agent treated PBMC are suspended in culture medium/assay medium ata concentration of 1×10^7/ml.
For all tested cell lines an E:T ratio of 25:1 is used. The co-cultivation of effector cells with target cells in presence of test antibody is performed in quadruplicates in 96-well round-bottom microtiter plates (Costar #3799) in a final volume of 200 μl assay medium per well consisting of 10% human AB serum and 1% BSA in RPMI in 1:1 ratio. In each experimental run two plates are assayed in parallel. First effector cells (PBMC cells in 100 μl 10% human AB serum in RPMI per well) are plated, followed by target cells (in 50 μl 1% BSA in RPMI per well) and antibody solution (candidate antibody diluted in 50 μl 1% BSA in RPMI). As a control, effector cells are cultivated in assay medium alone (effector cell control) and target cells are cultivated either in assay medium alone (spontaneous lysis) or in assay medium supplemented with 1% Triton X-100 (maximal lysis). The co-culture is incubated at 37° C. in a humid CO^2 incubator for 3 to 4 hours.
At the end of the incubation cells are removed from the culture medium by centrifugation (200×g, i.e. 1000 rpm; 10 min) at room temperature. Cell free supernatants (100 μl/well) are transferred into corresponding wells of a 96-well flat-bottom plate (Costar #3595). To determine the LDH activity in these supernatants 100 μl reaction mixture (freshly mixed 250 μl catalyst with 11.25 ml dye solution) are added to each well and incubated 30 min at room temperature in the dark. Then the absorbance is measured as described below.
Cytotoxicity Detection Kit (LDH Roche #11 644 793 001) is used to determine ADCC activity. The assay is based on the measurement of LDH enzyme activity released from plasma membrane-damaged cells. LDH released into the culture supernatants reduces the tetrazolium salt from the kit to formazan. […]
On the technique in general: LDH in the medium is a marker of cell lysis.

As to `Nc1ncn([C@@H]2O[C@H](CO)[C@@H](O)[C@H]2O)c(=O)n1` [5-Azacitidine, 4-amino-1-β-D-ribofuranosyl-1,3,5-triazin-2(1H)-one], the “Relative Cytolysis (%)” value came to 107% and the “impact on ADCC of mAb 33-1” value is “did not significantly impact”. Further, where the note is “listed as 5-azacytidine”, the “Relative Cytolysis (%)” value was determined as 98%.

For the compound `Nc1ncn([C@H]2C[C@H](O)[C@@H](CO)O2)c(=O)n1` [Decitabine, 4-Amino-1-(2-deoxy-β-D-erythro-pentofuranosyl)-1,3,5-triazin-2(1H)-one], the “Relative Cytolysis (%)” value came out at 98% and the “impact on ADCC of mAb 33-1” value is listed as “did not significantly impact”. The “Relative Cytolysis (%)” value (listed as decitabine) was 107%.
